Patent publication US20100196290A1, “COMPOSITIONS COMPRISING BETULONIC ACID” (Valtion teknillinen tutkimuskeskus, priority 2006, published 2010)

Columns and labels:
bacteria = experiment: Antibacterial activity, overall statement on the examples; format: cell-based; settings: concentration of 1 μg/ml
Source text: Erythromycin was used as the control.

Caco-2 cells = experiment: Cytotoxicity tests, viability of Caco-2 cells (LDH, WST-1 and ATP methods); format: cell-based, human; settings: 500 μM, exposure 24 hours
Description: Caco-2 cells (cell line used as a model for human intestine) were introduced in a 96 well plate in an amount of 35 000 cells (for LDH method), 45 000 cells (for WST-1 method), or 25 000 cells (for ATP method) per well. After cultivation of 24 hours, the cells were exposed to the compounds being tested for 24 hours by adding said compounds to the culture medium to give a concentration of 500 μM (as stock solutions in DMSO).
The influence of the compounds on the viability of the cells was measured by three different methods. Polymyxin B was used as the control. […] The amount of LDH in the sample due to exposure was quantified by means of an enzymatic reaction using the INT (iodonitrotetrazolium) colour reagent wherein the coloured reaction product formed was determined photometrically at 490 nm. In the WST-1 method, the metabolic activity of the cells after exposure was measured using the WST-1 reagent. Metabolic activity of a cell results in the generation of a coloured product from the reagent, said product being then used to evaluate the viability of the cells by photometric measurements (absorbance at 440 nm). In the ATP method, the amount of ATP within cells decreasing rapidly due to cellular damage was measured. In the method, ATP was luminometrically quantified by means of the ATP dependent luciferase-luciferin reaction. […]

Row | Compound | antibacterial activity (bacteria) | cytotoxicity (Caco-2 cells)
1 | C=C(C)[C@@H]1CC[C@]2(COC(=O)c3ccccc3NC(C)=O)CC[C@]3(C)C(CCC4[C@@]5(C)CC[C@H](O)C(C)(C)C5CC[C@]43C)C12 (stereo partly drawn) [Yhdiste 29, 28-N-acetylanthranilic acid ester of betulin] | considerable antibacterial activity | 
2 | C=C(C)[C@@H]1CC[C@]2(C(=O)O)CC[C@]3(C)[C@H](CC[C@@H]4[C@@]5(C)CCC(=O)C(C)(C)[C@@H]5CC[C@]43C)[C@@H]12 [Yhdiste 5, betulonic acid] | considerable antibacterial activity | low cytotoxicity
